Reference: patent US9631096B2, “Dye compositions, methods of preparation, conjugates thereof, and methods of use” (CORNELL UNIVERSITY, priority 2012, dated 2017)

Legend:
[1] = Single-molecule FRET with donor and acceptor dyes on ribosomal proteins S13 and L1; type: physicochemical, E. coli; conditions: ribosome S13/L1 labels, 532 nm excitation, same day and conditions, FIG. 12
Description: In this study, donor and acceptor fluorophores are attached to two ribosomal proteins (S13 small subunit; L1 large subunit, respectively).
Ribosomal protein S13 was PCR cloned from E. coli strain K12 genomic DNA into the pPROEX HTb vector with a TEV-protease-cleavable histidine (His)6 tag and a 12-residue peptide encoding the S6 epitope for the Sfp phosphopantetheinyl transferase reaction (amino acid sequence, [sequence]) fused at the N terminus (N-Sfp). {Yin, J., Lin, A. J., Golan, D. E. & Walsh, C. […] 1, 280-285 (2006)} After transformation of this plasmid into an E. coli ΔS13 knockout strain, cells were cultured and ribosomes were harvested as previously described. {Wang, L., Altman, R. B. & Blanchard, S. C. […]
Single-molecule FRET experiments were performed at room temperature in Tris-polymix with 5 mM Mg2+ buffer, as previously described {Wang, L., Altman, R. B. & Blanchard, S. C. […] The smFRET data were acquired by directly exciting the Cy3 fluorophore at 532 nm (LaserQuantum) while the Cy3 and Cy5 intensities were simultaneously recorded in Metamorph (Molecular Devices) with a 40-ms integration time. The data were analyzed in MATLAB (MathWorks) and plotted in Origin (OriginLab), as previously described. {Munro, J. B., Altman, R. B., O'Connor, N. & Blanchard, S. C.

[2] = cited from earlier work
[3] = Single-molecule TIRF fluorescence imaging of dye-labeled duplex DNA (photostability); type: physicochemical
Protocol: Each DNA strand was individually labeled with a single, NHS-activated “self-healing” fluorophore and hybridized to a complementary strand. Purified duplexes were used for single-molecule experiments.
All experiments were performed using a laboratory built, prism-based TIRE apparatus. Biotinylated DNA molecules were immobilized via a biotin-streptavidin interaction within microfluidic channels constructed on quartz slides. Fluorescence from surface-immobilized molecules, illuminated via the evanescent wave generated by total internal reflection of a 640 nm laser source, was collected using a water-immersion objective and imaged onto a EMCCD camera. […]
The photophysical properties of fluorophores were analyzed using automated software built in-house using Matlab. To extract kinetic parameters of blinking and photobleaching, the fluorescence traces were normalized to the mean fluorescence intensity of each dataset and idealized using the SKM algorithm and a 3-state model with one fluorescent (on) state, a transient dark state (blinking) and a permanent dark state (photobleaching). Time on (τon) was calculated by fitting the cumulative distribution to an exponential function.
By tracking the fluorescence of individual molecules over time, the intensity and duration of fluorescence, as well as the kinetics of blinking and photobleaching could be quantified. […]

[4] = Laser flash photolysis (time-resolved transient absorption) of Cy5 derivatives with benzophenone sensitizer; type: physicochemical; conditions: for lifetime of the 700 nm transient: acetonitrile, BP 5 mM, Cy5 22 μM
Description: This experiment examined whether enhanced photostability of the Cy5 fluorophore, when covalently linked to protective agents (COT, NBA or Trolox) (Chart 1) can be specifically attributed to a triplet state quenching mechanism using laser flash photolysis (time-resolved transient absorption spectroscopy).
Because the formation of triplet states of Cy5 is inefficient (triplet quantum yield <0.003) upon direct excitation, a triplet sensitizer was employed to more efficiently populate the Cy5 triplet state (^3Cy5*) through an energy transfer mechanism (eq 1).
Deoxygenated acetonitrile solutions containing BP and Cy5 were irradiated with light pulses from a Nd-YAG laser at 355 nm (5 ns pulse width) to generate transient absorption kinetic traces across the visible spectrum. From these traces, transient absorption spectra at different times after the laser pulse were constructed (FIG. 3). Directly after the laser pulse the spectrum is dominated by the triplet absorption of BP, which is known to show a peak at 525 nm. […] Assignment of this new transient at 700 nm as the triplet state absorption of Cy5 was subsequently confirmed by performing quenching studies in the presence of a small amount of oxygen (0.45 mM; generated by bubbling the acetonitrile solution with a gas mixture of 5% O2 and 95% N2).
In addition to different protective agents (COT, NBA and Trolox), the length of the spacer between Cy5 and the protective agent was also varied. Laser flash photolysis experiments in argon-saturated acetonitrile solutions using BP as the sensitizer were performed on each of the Cy5 derivatives. […] The initial growth in transient absorption is caused by the energy transfer process from ^3BP* to the Cy5 chromophore analog in eq 1, which is then followed by the decay of the Cy5 triplet state. The concentrations of the Cy5 derivatives were optimized in order to ensure accurate triplet lifetime determination. […]

SMILES | brightness and duration of donor and acceptor fluorescence / quality of FRET data [1] | quantum yield ([2]; fluorescence) | triplet quantum yield ([2]; upon direct excitation) | time period of fluorescence before blinking or photobleaching (visual inspection of traces) ([3]; individual fluorescence traces, dye on double stranded DNA, 641 nm) | Average number of photons (10^4 photons) detected before photobleaching or blinking ([3]; single-molecule measurements, dye on duplex DNA, TIRF, 641 nm illumination, deoxygenated solution) | τtriplet (triplet lifetime) ([4]; deoxygenated acetonitrile, BP sensitizer, 355 nm pulse, triplet absorption at 700 nm) [μs] | lifetime of the 700 nm transient ([4]; in the absence of O2 (argon purged)) [μs] | lifetime of the 700 nm transient ([4]; in the presence of O2 (0.45 mM; 5% O2/95% N2)) [μs]
CCN1C(=CC=CC2=[N+](CCCCCC(=O)O)c3ccc(S(=O)(=O)O)cc3C2(C)C)C(C)(C)c2cc(S(=O)(=O)[O-])ccc21 [Cy3] | short-lived and are noisy and relatively difficult to analyze |  |  |  |  |  |  | 
CCN1/C(=C/C=C/C=C/C2=[N+](CCCCCC(=O)O)c3ccc(S(=O)(=O)O)cc3C2(C)C)C(C)(C)c2cc(S(=O)(=O)[O-])ccc21 [Cy5] | short-lived and are noisy and relatively difficult to analyze | approximately 0.3 | < 0.003 | shortest | 2.1 ± 0.1 10^4 photons | 63 ± 3 | ~22 | 1.7
